Data set [1] in a line: S9 stability assay, human liver S9 fraction. It is filed as in vitro ADME. As to conditions: for CLint: known MEK compounds; for microsomal CLint at 1 μM / half-life at 1 μM: pH 7.4, Table 1, human liver S9 fraction; for microsomal CLint at 1 μM: read-out: CLint; for half-life at 1 μM: read-out: Liver S9 t1/2. On the procedure: Compounds were assessed for metabolic stability in human skin by assessing their rate of disappearance from human S9 skin fraction. Similarly, compounds were assessed for metabolic stability in human liver by assessing their rate of disappearance from human S9 liver fraction. The protocol below can be used to assess the difference between skin and hepatic metabolism.
The assay was carried out in 96-well microtiter plates at 37° C. Reaction mixtures (25 μL) contained a final concentration of 1 μM test compound, 2 mg/mL liver or skin S9 protein, and 1 mM NADPH in buffer (100 mM potassium phosphate, pH 7.4 buffer with 1 mM EDTA, 3 mM MgCl2). At each of the time points (0, 15, 30, and 60 minutes), 150 μL of quench solution (100% acetonitrile with 0.1% formic acid) with internal standard was transferred to each well. Besides the zero minute controls, mixtures containing the same components except the NADPH were also prepared as the negative control. Verapamil or testosterone was included as a positive control to verify assay performance. Plates were sealed and centrifuged at 4° C. for 15 minutes at 4000 rpm. The supernatant was transferred to fresh plates for LC/MS/MS analysis.
All samples were analyzed on LC/MS/MS using an AB Sciex API 4000 instrument, coupled to a Shimadzu LC-20AD LC Pump system. Analytical samples were separated using a Waters Atlantis T3 dC18 reverse phase HPLC column (20 mm×2.1 mm) at a flow rate of 0.5 mL/min. The mobile phase consisted of 0.1% formic acid in water (solvent A) and 0.1% formic acid in 100% acetonitrile (solvent B).
The extent of metabolism was calculated as the disappearance of the test compound, compared to the 0-min control reaction incubations. Initial rates were calculated for the compound concentration and used to determine t1/2 values and subsequently, the intrinsic clearance, CLint=(0.693) (1/t1/2 (min)) (mL incubation/mg of S9 protein).

In the next data set the target is T1, hERG channel protein (Homo sapiens, UniProt Q12809).
T1 construct: purchased ThermoFisher PV5365
T1 sequence (Q12809 whole entry): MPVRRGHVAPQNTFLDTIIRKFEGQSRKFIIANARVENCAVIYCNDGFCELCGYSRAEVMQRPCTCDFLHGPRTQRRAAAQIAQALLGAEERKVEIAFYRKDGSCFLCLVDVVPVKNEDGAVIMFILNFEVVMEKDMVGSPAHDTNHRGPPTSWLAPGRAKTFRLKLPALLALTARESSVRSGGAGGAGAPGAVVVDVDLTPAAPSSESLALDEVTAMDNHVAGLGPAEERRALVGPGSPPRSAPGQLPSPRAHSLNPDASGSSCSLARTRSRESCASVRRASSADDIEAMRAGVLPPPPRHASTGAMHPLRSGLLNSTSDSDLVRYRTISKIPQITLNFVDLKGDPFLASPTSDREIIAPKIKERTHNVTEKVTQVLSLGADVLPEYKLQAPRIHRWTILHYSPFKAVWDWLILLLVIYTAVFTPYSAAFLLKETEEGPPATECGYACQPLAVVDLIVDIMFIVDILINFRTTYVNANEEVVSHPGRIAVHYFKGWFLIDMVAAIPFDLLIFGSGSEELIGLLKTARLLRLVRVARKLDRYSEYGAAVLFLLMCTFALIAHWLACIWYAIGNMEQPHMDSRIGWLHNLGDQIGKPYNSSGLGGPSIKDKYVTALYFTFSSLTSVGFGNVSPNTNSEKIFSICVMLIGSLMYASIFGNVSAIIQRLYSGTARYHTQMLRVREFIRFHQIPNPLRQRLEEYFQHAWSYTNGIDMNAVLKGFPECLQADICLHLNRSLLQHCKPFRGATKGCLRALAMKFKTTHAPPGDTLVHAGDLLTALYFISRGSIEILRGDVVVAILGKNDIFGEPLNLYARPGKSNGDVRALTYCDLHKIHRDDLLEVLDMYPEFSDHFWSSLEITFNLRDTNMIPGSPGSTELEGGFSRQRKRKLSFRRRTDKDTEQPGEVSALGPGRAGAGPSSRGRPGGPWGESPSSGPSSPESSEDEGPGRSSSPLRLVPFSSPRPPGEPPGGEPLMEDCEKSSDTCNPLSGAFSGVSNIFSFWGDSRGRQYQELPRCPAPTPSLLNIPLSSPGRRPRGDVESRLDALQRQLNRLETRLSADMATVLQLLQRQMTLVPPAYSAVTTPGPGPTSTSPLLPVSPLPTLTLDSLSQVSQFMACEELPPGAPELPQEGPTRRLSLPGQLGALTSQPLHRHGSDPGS
Nature of the data set: hERG screening assay (Predictor hERG FP). It is filed as binding. As to conditions: fluorescence polarization tracer displacement. On the procedure: hERG screening was conducted using a procedure similar to the procedure described by Piper et al. (Piper, D. R. et al., Assay Drug Dev. Technol. 2008, 6(2):213-223). The Predictor hERG FP assay (available from ThermoFisher, cat. no. PV5365) is a homogenous, fluorescence polarization biochemical-based format utilizing a membrane fraction containing hERG channel protein (Predictor hERG Membrane) and a high affinity, red-fluorescent hERG channel ligand (Predictor hERG Tracer Red). When the Predictor hERG Tracer ligand is bound to the hERG channel it produces high fluorescence polarization values. Compounds that bind to the hERG channel protein (competitors) displace the Predictor hERG Tracer Red resulting in decreased fluorescence polarization values.
Test compounds were solubilized in DMSO at 100× (or greater) of the desired starting concentration. Screening was conducted with a final concentration of 1% DMSO. For 10-point titrations, 3-fold serial dilutions were performed from the starting concentrations. The assay buffer used was 25 mM HEPES (pH 7.5), 15 mM KCl, 1 mM MgCl2, and 0.05% Pluronic F-127 (available from Sigma-Aldrich).
Predictor hERG membranes were stored as a 2× stock at −80° C. Each membrane lot was titrated to identify the concentration of membranes required to obtain ˜70% bound tracer. Before setting up the assay the membranes were thawed in a 37° C. water bath and stored at room temperature. To avoid light scatter caused by large membrane particulates the membranes were sonicated until a homogeneous solution free of particulates is obtained. […]
384 well untreated low-volume polystyrene microplates (Corning Cat. #4511) were used for the assay. […] The assay plate was read on a fluorescence plate reader (Tecan Safire^2) and the data was analyzed. […]
Assay blank control wells consisted of Predictor hERG Membranes and Assay Buffer. The blank wells were used for background subtraction of raw parallel and perpendicular fluorescence values prior to the calculation of polarization values. […]

For data set [2] the following is noted: clinically tested; cited from earlier work.
The test system of another data set is P-gp (human MDR1). In words: in vitro. As to conditions: dog; for Papp A→B at 1 h, 5 μM / Papp B→A at 1 h, 5 μM: MDCK-MDR1, Papp. As to the method: (§1) MDCK-MDR1 is a stable-transfected cell line originating from MDCK cells, with over-expression of human MDR1 gene. The cell line is widely used for the identification and characterization of P-gp substrates and inhibitors.
(§2) MDCK-MDR1 cells were plated into 96-well Millipore Millicell-96 plates at 7,500 cells/75 μL/well and incubated for three days at 37° C. with 5% CO2. Cells were washed with Hank's Balanced Salt Solution (HBSS) with 5 mM HEPES for 30 minutes before starting the experiment. Test compound solutions were prepared by diluting DMSO stock into HBSS buffer, resulting in a final DMSO concentration of 0.1%. Prior to the experiment, cell monolayer integrity was verified by […] electrical resistance (TEER). Transport experiment was initiated by adding test compounds to the apical (75 μL) or basal (250 μL) side. Transport plates were incubated at 37° C. in a humidified incubator with 5% CO2. Samples were taken from the donor and acceptor compartments after one hour and analyzed by liquid chromatography with tandem mass spectrometry (LC/MS/MS).
(§3) Digoxin was used as reference control.
(§4) Apparent permeability (Papp) values were calculated using the following equation: Papp=(dQ/dt)/A/Co; where dQ/dt is the initial rate of amount of test compound transported across cell monolayer, A is the surface area of the filter membrane, and Co is the initial concentration of the test compound, calculated for each direction using a 4-point calibration curve by LC/MS/MS.
(§5) Net flux ratio between the two directional transports was calculated by the following equation: Ratio=Papp, B-A/Papp, A-B; where Papp, B-A and Papp, A-B represent the apparent permeability of test compound from the basal-to-apical and apical-to-basal side of the cellular monolayer, respectively.
(§6) Recovery was calculated based on the compound concentration at the end of the experiment, compared to that at the beginning of the experiment, adjusted for volumes.
(§7) A net flux ratio greater than two was considered a positive result for substrate determination. […] If the addition of a known P-gp inhibitor to the experiment reduces the net flux ratio by a significant amount (more than 50% reduction or reduces the ratio to close to unity), it is likely that the compound tested is a P-gp substrate.

A further data set deals with MDCK-MDR1 cells. In words: in vitro. The note with it: dog, MDCK-MDR1, 1 h, 5 μM. As to the method: as §1, §2, §3, §4, §5, §6, §7

Each structure is given as a SMILES string.

Usually IC50 stands for the concentration needed to halve the response being measured. With `O=C(NOC[C@H](O)CO)c1c(Nc2ccc(I)cc2F)sc2ncccc12` [Example C9], in data set [1], the CLint is 2.20 μL/min/mg protein, the microsomal CLint at 1 μM is 2.2 µL/min/mg and the half-life at 1 μM was determined as 2.63 h. Further, on hERG channel protein, the IC50 is 7.3 µM.

`O=C(NOC[C@H](O)CO)c1ccc(F)c(F)c1Nc1ccc(I)cc1F` [PD0325901]: the side effects result in data set [2] was “neurological side effects associated with ataxia, confusion, and syncope”.

A word on the efflux ratio: it is a quotient of directional permeabilities that is used to spot active efflux. One may read the Papp A→B as the apparent permeability from the apical to the basolateral side of a cell layer. A lower Papp A→B goes with slow passage. Broadly, the Papp B→A is how fast a substance crosses the layer from the basolateral side. In the case of `Cn1c(C(=O)NOCCO)c(Nc2ccc(I)cc2F)c2cnccc21` [Example C8], in data set [1], the CLint is 5.27 μL/min/mg protein, the microsomal CLint at 1 μM is 5.27 µL/min/mg and the half-life at 1 μM stood at 1.1 h. The efflux ratio at 1 h, 5 μM in the data set with P-gp (human MDR1) (MDCK-MDR1) came out at 3.4. Moreover, the Papp A→B at 1 h, 5 μM in the data set with P-gp (human MDR1) (A-B Mean) turned out to be 12.8 ×10⁻⁶ cm/s. For the same compound, the Papp A→B at 1 h, 5 μM in the data set on P-gp (human MDR1) (A-B Value) was found to be 12.7 ×10⁻⁶ cm/s. The compound also registered a Papp B→A at 1 h, 5 μM in the data set on P-gp (human MDR1) (B-A Mean) of 43.5 ×10⁻⁶ cm/s. Besides, the Papp B→A at 1 h, 5 μM in the data set with P-gp (human MDR1) (B-A Value) was 43.2 ×10⁻⁶ cm/s. Also, in the data set on MDCK-MDR1 cells, the “Papp, A-B Value” turned out to be 12.9 ×10⁻⁶ cm/s; the “Papp, B-A Value” is 43.7 ×10⁻⁶ cm/s; the “Recover Rate” value is 99%. In addition, the IC50 on hERG channel protein was 1.8 µM.

Source of the values: patent US11161845B2, “Pyrrolopyridine-aniline compounds for treatment of dermal disorders” (Nflection Therapeutics, Inc., priority 2017, dated 2021).
